Data set [1] addresses T1, NLRP3 (Homo sapiens, UniProt Q96P20). Kind of data set: THP-1 cells pyroptosis assay.
The target in data set [2] is T1, NLRP3. Nature of the data set: Human whole blood IL-1β release assay. Particulars: LPS 1 μg/ml, nigericin 10 μM, IL-1β AlphaLisa. Also noted: Human whole blood in Li-heparin tubes was obtained from healthy donors; from tissue; host or cells: human whole blood from healthy donors. It counts as cell-based. From the text: For systemic delivery, the ability to inhibit NLRP3 when the compounds are present within the bloodstream is of great importance.

The target in data set [3] is T2, hERG cardiac potassium channel (Homo sapiens, UniProt Q12809).
T2 construct: host or cells: CHO crelox hERG cell line (Chinese hamster)
T2 sequence (Q12809 whole entry): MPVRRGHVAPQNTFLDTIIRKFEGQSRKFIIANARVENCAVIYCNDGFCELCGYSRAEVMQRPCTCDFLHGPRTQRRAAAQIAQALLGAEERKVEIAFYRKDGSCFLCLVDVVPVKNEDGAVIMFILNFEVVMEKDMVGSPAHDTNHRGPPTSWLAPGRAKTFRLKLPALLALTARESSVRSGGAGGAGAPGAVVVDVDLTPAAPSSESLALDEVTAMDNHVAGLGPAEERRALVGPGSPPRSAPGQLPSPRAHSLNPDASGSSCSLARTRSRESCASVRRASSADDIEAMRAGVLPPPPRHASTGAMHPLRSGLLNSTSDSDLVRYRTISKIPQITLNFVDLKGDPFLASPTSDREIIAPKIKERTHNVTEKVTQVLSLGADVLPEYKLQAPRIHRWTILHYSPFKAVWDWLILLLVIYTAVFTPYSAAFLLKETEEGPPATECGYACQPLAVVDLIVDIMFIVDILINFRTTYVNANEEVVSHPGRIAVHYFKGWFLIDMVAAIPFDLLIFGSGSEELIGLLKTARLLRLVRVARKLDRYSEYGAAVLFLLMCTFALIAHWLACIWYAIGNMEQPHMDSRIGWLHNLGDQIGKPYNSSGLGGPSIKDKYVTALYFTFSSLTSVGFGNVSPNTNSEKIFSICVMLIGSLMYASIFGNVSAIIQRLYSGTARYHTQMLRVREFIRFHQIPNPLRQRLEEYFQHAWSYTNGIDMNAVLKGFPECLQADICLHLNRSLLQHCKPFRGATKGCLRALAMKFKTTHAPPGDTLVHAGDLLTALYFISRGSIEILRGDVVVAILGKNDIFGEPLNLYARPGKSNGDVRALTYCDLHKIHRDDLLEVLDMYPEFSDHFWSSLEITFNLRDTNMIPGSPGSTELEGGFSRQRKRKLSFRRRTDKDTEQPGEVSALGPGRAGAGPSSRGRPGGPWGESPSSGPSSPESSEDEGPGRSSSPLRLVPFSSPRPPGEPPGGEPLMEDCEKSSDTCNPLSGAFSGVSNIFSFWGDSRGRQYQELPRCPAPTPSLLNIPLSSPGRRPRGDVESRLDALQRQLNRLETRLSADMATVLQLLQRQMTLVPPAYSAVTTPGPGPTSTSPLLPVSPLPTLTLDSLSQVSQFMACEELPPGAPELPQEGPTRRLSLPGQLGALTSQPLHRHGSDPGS
Kind of data set: hERG screening assay (automated patch clamp, CHO crelox hERG cells). Type of data set: cell-based. The settings on record: whole-cell patch clamp, 35-37° C. From the text: In the drug development process of small molecules, one of the most frequent adverse side effects, leading to the failure of drugs, is the cardiac arrhythmias. […] Having no or low inhibition of the hERG cardiac potassium channel is therefore considered as beneficial.
Ready-to-use frozen instant CHO-hERG cells were cryopreserved at Evotec (Germany) and used directly in the experiments.
The extracellular solution contains (in mM): NaCl 150; KCl 4; CaCl2 1; MgCl2 1; HEPES 10; pH 7.2-7.4 with NaOH, osmolarity 290-330 mOsm. The internal solution contains (in mM): KCl, 10; KF, 100; NaCl, 10; HEPES, 10; EGTA, 20; pH=7.0-7.4 with KOH, osmolarity 260-300 mOsm.
The effects of a compound on hERG K+-currents parameters will be evaluated at 2 concentrations in at least 4 cells.
K+ currents are measured with the patch-voltage-clamp technique in the whole-cell configuration at 35-37° C.
The amplitudes of IKhERG were recorded in each concentration of drug and they were compared to the vehicle control values (taken as 100%) to define fractional blocks. The concentration-response data were fitted with the following relationship:
Concentration-response curves were fitted by non-linear regression analysis using EworkBook suite (ID Business Solutions Ltd, UK). Data fit was done with the 4 Parameter Logistic Model (fit=(A+(B/(1+((x/C)^D)))), where A=0 and B=100).
(hERG is a cardiac potassium channel; its block is linked to QT prolongation.)

Another data set deals with T3, human P-gp (Homo sapiens, UniProt P08183).
T3 construct: expressed in transfected cells; host or cells: LLC-PK1 cells (porcine kidney epithelial cells)
T3 sequence (P08183 whole entry): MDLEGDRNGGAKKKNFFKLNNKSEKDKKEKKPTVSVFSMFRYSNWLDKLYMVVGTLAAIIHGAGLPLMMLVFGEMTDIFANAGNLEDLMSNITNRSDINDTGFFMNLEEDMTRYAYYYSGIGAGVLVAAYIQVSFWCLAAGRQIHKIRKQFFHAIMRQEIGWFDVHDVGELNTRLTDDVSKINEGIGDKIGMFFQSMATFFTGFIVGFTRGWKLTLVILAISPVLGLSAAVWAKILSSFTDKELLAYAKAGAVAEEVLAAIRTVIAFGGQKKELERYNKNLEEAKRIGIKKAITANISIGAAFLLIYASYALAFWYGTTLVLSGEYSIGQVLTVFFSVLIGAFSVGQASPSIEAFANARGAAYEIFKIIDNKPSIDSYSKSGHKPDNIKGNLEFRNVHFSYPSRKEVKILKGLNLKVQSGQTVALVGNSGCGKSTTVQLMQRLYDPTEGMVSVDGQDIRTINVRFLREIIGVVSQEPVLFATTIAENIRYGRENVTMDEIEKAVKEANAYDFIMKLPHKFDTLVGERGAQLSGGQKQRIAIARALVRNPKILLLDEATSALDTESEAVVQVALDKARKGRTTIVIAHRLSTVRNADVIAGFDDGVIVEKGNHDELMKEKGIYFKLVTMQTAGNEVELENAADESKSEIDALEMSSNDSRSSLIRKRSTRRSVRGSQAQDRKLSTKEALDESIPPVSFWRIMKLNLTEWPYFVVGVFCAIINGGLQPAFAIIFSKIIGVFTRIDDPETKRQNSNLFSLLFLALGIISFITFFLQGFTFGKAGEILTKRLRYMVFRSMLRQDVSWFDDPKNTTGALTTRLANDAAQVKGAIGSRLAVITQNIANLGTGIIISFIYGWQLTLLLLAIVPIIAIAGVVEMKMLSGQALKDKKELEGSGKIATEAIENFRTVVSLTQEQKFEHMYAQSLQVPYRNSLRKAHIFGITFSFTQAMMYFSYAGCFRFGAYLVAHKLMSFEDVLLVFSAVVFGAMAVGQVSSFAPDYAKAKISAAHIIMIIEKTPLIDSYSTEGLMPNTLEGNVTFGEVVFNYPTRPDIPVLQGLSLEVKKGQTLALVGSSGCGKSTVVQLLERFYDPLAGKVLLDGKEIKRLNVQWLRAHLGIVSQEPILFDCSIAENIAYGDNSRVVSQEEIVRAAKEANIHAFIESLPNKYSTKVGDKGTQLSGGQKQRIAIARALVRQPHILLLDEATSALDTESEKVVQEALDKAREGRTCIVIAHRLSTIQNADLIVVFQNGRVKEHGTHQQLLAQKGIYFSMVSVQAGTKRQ
Nature of the data set: Transcellular human P-gp assay (transfected LLC-PK1 cells). Type of data set: in vitro ADME. The settings on record: LLC-PK1 cells over-expressing human P-gp. From the text:
The general assay uses transfected LLC-PK1 cells (porcine kidney epithelial cells) over-expressing human or mouse P-gp, cultured on 96 well semi-permeable filter membrane plates, where they form a polarized monolayer with tight junctions, and act as a barrier between the apical and basolateral compartment.
P-gp is expressed in the apical-facing membrane of the monolayer.

pIC50: −log10 of the molar value. Where a name gives a salt, the structure may show the parent alone.

T1 sequence (Q96P20 whole entry): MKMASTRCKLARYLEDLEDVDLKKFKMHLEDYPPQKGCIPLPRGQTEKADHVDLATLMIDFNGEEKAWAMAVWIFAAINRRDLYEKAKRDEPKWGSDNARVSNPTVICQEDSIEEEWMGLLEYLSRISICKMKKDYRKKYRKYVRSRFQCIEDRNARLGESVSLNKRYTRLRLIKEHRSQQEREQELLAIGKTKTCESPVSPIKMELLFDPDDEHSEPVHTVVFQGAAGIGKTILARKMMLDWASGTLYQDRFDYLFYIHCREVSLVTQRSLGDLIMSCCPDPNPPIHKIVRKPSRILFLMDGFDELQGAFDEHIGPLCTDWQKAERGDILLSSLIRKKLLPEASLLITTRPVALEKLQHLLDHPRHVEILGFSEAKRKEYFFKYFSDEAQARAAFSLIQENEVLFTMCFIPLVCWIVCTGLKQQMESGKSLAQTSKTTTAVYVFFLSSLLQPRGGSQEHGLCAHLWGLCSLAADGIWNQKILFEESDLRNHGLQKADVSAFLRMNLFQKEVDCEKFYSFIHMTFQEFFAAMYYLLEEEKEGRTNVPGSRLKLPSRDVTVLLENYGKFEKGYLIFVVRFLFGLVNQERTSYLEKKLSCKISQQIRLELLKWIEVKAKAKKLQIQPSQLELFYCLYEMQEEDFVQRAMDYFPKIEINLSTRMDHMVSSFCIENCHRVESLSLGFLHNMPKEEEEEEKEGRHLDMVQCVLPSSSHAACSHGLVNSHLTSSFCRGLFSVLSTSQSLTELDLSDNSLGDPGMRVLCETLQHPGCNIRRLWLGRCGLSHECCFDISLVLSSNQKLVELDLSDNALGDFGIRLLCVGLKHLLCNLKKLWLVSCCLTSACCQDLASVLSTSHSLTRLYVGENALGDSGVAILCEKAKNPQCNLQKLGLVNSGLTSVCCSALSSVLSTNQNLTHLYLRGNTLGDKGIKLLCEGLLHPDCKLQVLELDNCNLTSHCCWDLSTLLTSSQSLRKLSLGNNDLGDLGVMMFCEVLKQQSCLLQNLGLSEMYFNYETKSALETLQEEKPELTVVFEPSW

For the molecule `Cc1nc(N[C@@H]2CCCN(CCCC(=O)N3CCC(O)C3)C2)nnc1-c1ccc2c(c1O)CCO2` (mixture of isomers) [Example 15, 1-(3-Hydroxypyrrolidin-1-yl)-4-[rac-(3R)-3-[[6-(4-hydroxy-2,3-dihydrobenzofuran-5-yl)-5-methyl-1,2,4-triazin-3-yl]amino]-1-piperidyl]butan-1-one; formic acid], the figures for the pIC50 on NLRP3 [1] and on NLRP3 [2] were 7.24 and 7.48, respectively.
In the case of `Cc1nc(N[C@@H]2CCCN(CC3(O)CC3)C2)nnc1-c1ccc2c(c1O)CCO2` [Example 4, 5-[3-[[(3R)-1-[(1-Hydroxycyclopropyl)methyl]-3-piperidyl]amino]-5-methyl-1,2,4-triazin-6-yl]-2,3-dihydrobenzofuran-4-ol], the figures for the pIC50 on NLRP3 [1] and at NLRP3 [2] were 7.77 and 7.48, respectively.
Consider `COCCN1CCC[C@@H](Nc2nnc(-c3ccc4c(c3O)CCO4)c(C)n2)C1` [Example 5, 5-[3-[[(3R)-1-(2-Methoxyethyl)-3-piperidyl]amino]-5-methyl-1,2,4-triazin-6-yl]-2,3-dihydrobenzofuran-4-ol; formic acid salt], for which the pIC50 is 7.72 on NLRP3 [1] and 7.82 on NLRP3 [2].
For `CCN1C[C@@H](O)C[C@@H](Nc2nnc(-c3ccc4c(c3O)CCO4)c(C)n2)C1` [Example 6, (3S,5R)-1-Ethyl-5-[[6-(4-hydroxy-2,3-dihydrobenzofuran-5-yl)-5-methyl-1,2,4-triazin-3-yl]amino]piperidin-3-ol] the same measures were 7.55 and 7.64.
The like results for `COC(C)CN1CCC[C@@H](Nc2nnc(-c3ccc4c(c3O)CCO4)c(C)n2)C1` (stereo partly drawn) [Example 7, 5-[5-Methyl-3-[[(3R)-1-(2-methoxypropyl)-3-piperidyl]amino]-1,2,4-triazin-6-yl]-2,3-dihydrobenzofuran-4-ol] were, in that order, 7.21 and 7.40.
In turn, `Cc1nc(N[C@@H]2CCCN(C3COC3)C2)nnc1-c1ccc2c(c1O)CCO2` [Example 8, 5-[5-Methyl-3-[[(3R)-1-(oxetan-3-yl)-3-piperidyl]amino]-1,2,4-triazin-6-yl]-2,3-dihydrobenzofuran-4-ol] showed a pIC50 against NLRP3 [1] of 6.92.
With `CNC(=O)CCCN1CCC[C@@H](Nc2nnc(-c3ccc4c(c3O)CCO4)c(C)n2)C1` [Example 10, 4-[(3R)-3-[[6-(4-hydroxy-2,3-dihydrobenzofuran-5-yl)-5-methyl-1,2,4-triazin-3-yl]amino]-1-piperidyl]-N-methyl-butanamide], in data set [3], the IC20 turned out to be 2900 nM. The pIC50 was 7.57 at NLRP3 [1] and 7.40 against NLRP3 [2]. In addition, the efflux ratio at human P-gp (read-out: ER (efflux ratio)) worked out at 8.5. In addition, the Papp on human P-gp (read-out: Permeability) was determined as 12.2 ×10⁻⁶ cm/s.
For `Cc1nc(N[C@@H]2CCCN(CCCC(=O)N(C)C)C2)nnc1-c1ccc2c(c1O)CCO2` [Example 12, 4-[(3R)-3-[[6-(4-Hydroxy-2,3-dihydrobenzofuran-5-yl)-5-methyl-1,2,4-triazin-3-yl]amino]-1-piperidyl]-N,N-dimethyl-butanamide], the pIC50 against NLRP3 [1] is 7.28; against NLRP3 [2], 7.52.
Molecule `Cc1nc(N[C@@H]2CCCN(CCCC(=O)N(C)CCO)C2)nnc1-c1ccc2c(c1O)CCO2` [Example 14] had a negative-log IC50 (pIC50) against NLRP3 [1] of 7.12.
In the case of `Cc1nc(N[C@@H]2CCCN(CCCC(=O)N3CCOCC3)C2)nnc1-c1ccc2c(c1O)CCO2` [Example 16, 4-[(3R)-3-[[6-(4-Hydroxy-2,3-dihydrobenzofuran-5-yl)-5-methyl-1,2,4-triazin-3-yl]amino]-1-piperidyl]-1-morpholino-butan-1-one], the pIC50 is 7.40 on NLRP3 [1] and 7.34 on NLRP3 [2].
Take `Cc1nc(N[C@@H]2CCCN(CCn3cccn3)C2)nnc1-c1ccc2c(c1O)CCO2` [Example 17, 5-[5-Methyl-3-[[(3R)-1-(2-pyrazol-1-ylethyl)-3-piperidyl]amino]-1,2,4-triazin-6-yl]-2,3-dihydrobenzofuran-4-ol]: the pIC50 on NLRP3 [1] is 7.46; at NLRP3 [2], 7.12.
For the molecule `Cc1nc(N[C@@H]2CCCN(CCCc3nnn[nH]3)C2)nnc1-c1ccc2c(c1O)CCO2` [Example 18, 5-[5-Methyl-3-[[(3R)-1-[3-(1H-tetrazol-5-yl)propyl]-3-piperidyl]amino]-1,2,4-triazin-6-yl]-2,3-dihydrobenzofuran-4-ol; formic acid], the pIC50 against NLRP3 [1] and against NLRP3 [2] was 7.64 each time.
Consider `Cc1nc(N[C@@H]2CCCN(CCCC#N)C2)nnc1-c1ccc2c(c1O)CCO2` [Example 19, 4-[(3R)-3-[[6-(4-Hydroxy-2,3-dihydrobenzofuran-5-yl)-5-methyl-1,2,4-triazin-3-yl]amino]-1-piperidyl]butanenitrile], for which the results for the pIC50 on NLRP3 [1] and at NLRP3 [2] were 7.70 and 7.59, respectively.
On to `Cc1nc(N[C@@H]2CCCN(CCCc3ncco3)C2)nnc1-c1ccc2c(c1O)CCO2` [Example 20, 5-[5-Methyl-3-[[(3R)-1-(3-oxazol-2-ylpropyl)-3-piperidyl]amino]-1,2,4-triazin-6-yl]-2,3-dihydrobenzofuran-4-ol], for which the pIC50 is 7.80 against NLRP3 [1] and 7.74 on NLRP3 [2].
As for `Cc1nc(N[C@@H]2CCCN(CCc3nnn[nH]3)C2)nnc1-c1ccc2c(c1O)CCO2` [Example 21, 5-[5-Methyl-3-[[(3R)-1-[2-(1H-tetrazol-5-yl)ethyl]-3-piperidyl]amino]-1,2,4-triazin-6-yl]-2,3-dihydrobenzofuran-4-ol], the values for the pIC50 at NLRP3 [1] and against NLRP3 [2] were 7.70 and 6.78, respectively.
Regarding `Cc1nc(N[C@@H]2CCCN(CCCS(C)(=O)=O)C2)nnc1-c1ccc2c(c1O)CCO2` [Example 22, 5-[5-Methyl-3-[[(3R)-1-(3-methylsulfonylpropyl)-3-piperidyl]amino]-1,2,4-triazin-6-yl]-2,3-dihydrobenzofuran-4-ol], the results for the pIC50 against NLRP3 [1] and at NLRP3 [2] were 7.24 and 7.27, respectively.

The pIC50 is −log10 of the IC50, conventionally taken in molar units. Low readings indicate a high IC50, high ones a low IC50. As a reminder, the IC20 is the concentration at which the effect reaches the 20% level.

(Values after patent US20260200901A1, “NOVEL COMPOUNDS AS MODULATORS OF NLRP3 INHIBITION” (Hoffmann-La Roche Inc., priority 2022, published 2026).)
